Values of other authors as cited in US20040247689A1, “Process for preparing a pharmaceutical active ingredient with high specific surface area” (priority 2003, published 2004).

solubility in chloroform (chloroform): slightly soluble
solubility in ethanol (ethanol): slightly soluble
solubility in isopropanol (isopropanol): slightly soluble
solubility in methanol (methanol): freely soluble
solubility in water (water): sparingly soluble
SMILES: OCc1cc(C(O)CNCCCCCCOCCCCc2ccccc2)ccc1O (centres unmarked) [salmeterol xinafoate]
